Assay results published in patent publication US8232263B2, “17,20(Z)-dehydro vitamin D analogs and their uses” (Wisconsin Alumni Research Foundation, priority 2004, dated 2012).
“Also recorded” adds a separate entry of the source.

Tests used:
[1] = test system: Human promyelocytic leukemia (HL60) cells; experiment: HL-60 differentiation (nitro blue tetrazolium reduction); type: cell-based; conditions: FIG. 2; for EC50: HL60 cells, four days after treatment
Description: The study drugs were dissolved in ethanol and the concentrations determined using UV spectrophotometry. Serial dilutions were prepared so that a range of drug concentrations could be tested without changing the final concentration of ethanol (≦0.2%) present in the cell cultures.
Human promyelocytic leukemia (HL60) cells were grown in RPMI-1640 medium containing 10% fetal bovine serum. The cells were incubated at 37° C. in the presence of 5% CO2.
HL60 cells were plated at 1.2×10^5 cells/ml. Eighteen hours after plating, cells in duplicate were treated with drug. Four days later, the cells were harvested and a nitro blue tetrazolium reduction assay was performed (Collins et al., 1979; J. Exp. Med. 149:969-974). The percentage of differentiated cells was determined by counting a total of 200 cells and recording the number that contained intracellular black-blue formazan deposits. Verification of differentiation to monocytic cells was determined by measuring phagocytic activity (data not shown).

[2] = Bone calcium mobilization (serum calcium) in vitamin D-deficient rats; type: in vivo, Sprague-Dawley rats
Description: (§1) Male, weanling Sprague-Dawley rats were placed on Diet 11 (Suda et al, J. Nutr. 100:1049, 1970) (0.47% Ca)+vitamins AEK for one week followed by Diet 11 (0.02% Ca)+vitamins AEK for 3 weeks. The rats were then switched to the same diet containing 0.47% Ca for one week followed by two weeks on the same diet containing 0.02% Ca. Dose administration began during the last week on 0.02% calcium diet. Four consecutive ip doses were given approximately 24 hours apart. Twenty-four hours after the last dose, blood was collected from the severed neck and the concentration of serum calcium determined by atomic absorption spectrometry as a measure of bone calcium mobilization. The first 10 cm of the intestine was also collected for intestinal calcium transport analysis using the everted gut sac method.
(§2) Antagonism was tested by administering a combination of 1,25(OH)2D3 and the compound to the animal simultaneously.

[3] = test system: 24-hydroxylase (24Ohase) gene promoter in ROS 17/2.8 (bone) cells; experiment: In vitro transcription assay (luciferase reporter); type: cell-based; conditions: FIG. 3; for EC50: ROS 17/2.8 cells, 24Ohase promoter-luciferase, sixteen hours after dosing, read-out: EC50, transcriptional activity in bone cells
Description: Transcription activity was measured in ROS 17/2.8 (bone) cells that were stably transfected with a 24-hydroxylase (24Ohase) gene promoter upstream of a luciferase reporter gene (Arbour et al., 1998). Cells were given a range of doses. Sixteen hours after dosing the cells were harvested and luciferase activities were measured using a luminometer. RLU=relative luciferase units.

[4] = Intestinal calcium transport, everted gut sac method, in vitamin D-deficient rats; type: in vivo, Sprague-Dawley rats; conditions: VIT-III 260, 2340 or 7020 pmol/day versus 1,25(OH)2D3 260 pmol/day, FIG. 5
Description: as §1, §2

[5] = target: T1, full-length recombinant rat vitamin D receptor (Rattus norvegicus, UniProt P13053); experiment: Vitamin D receptor binding, competition with [3H]-1,25(OH)2D3; conditions: FIG. 1
T1 construct: Full-length recombinant rat receptor was expressed in E. coli BL21 (DE3) Codon Plus RIL cells; histidine tag (C); made in house; host or cells: E. coli BL21 (DE3) Codon Plus RIL
T1 sequence (P13053 1-423): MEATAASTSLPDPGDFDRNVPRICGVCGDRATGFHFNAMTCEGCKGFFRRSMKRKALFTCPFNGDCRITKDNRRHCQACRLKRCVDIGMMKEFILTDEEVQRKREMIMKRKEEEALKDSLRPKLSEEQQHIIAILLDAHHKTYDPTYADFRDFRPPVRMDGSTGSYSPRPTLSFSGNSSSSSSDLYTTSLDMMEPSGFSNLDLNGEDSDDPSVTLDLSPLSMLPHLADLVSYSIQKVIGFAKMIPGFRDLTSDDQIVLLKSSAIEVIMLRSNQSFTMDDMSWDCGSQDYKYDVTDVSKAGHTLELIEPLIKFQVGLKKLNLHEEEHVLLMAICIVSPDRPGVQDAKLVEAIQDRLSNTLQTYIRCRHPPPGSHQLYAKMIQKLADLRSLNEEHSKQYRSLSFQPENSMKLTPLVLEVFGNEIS
Description: Full-length recombinant rat receptor was expressed in E. coli BL21 (DE3) Codon Plus RIL cells and purified to homogeneity using two different column chromatography systems. The first system was a nickel affinity resin that utilizes the C-terminal histidine tag on this protein. The protein that was eluted from this resin was further purified using ion exchange chromatography (S-Sepharose Fast Flow). Aliquots of the purified protein were quick frozen in liquid nitrogen and stored at −80° C. until use. For use in binding assays, the protein was diluted in TEDK50 (50 mM Tris, 1.5 mM EDTA, pH7.4, 5 mM DTT, 150 mM KCl) with 0.1% Chaps detergent. The receptor protein and ligand concentration was optimized such that no more than 20% of the added radiolabeled ligand was bound to the receptor.
Radiolabeled and unlabeled ligands were added to 100 mcl of the diluted protein at a final ethanol concentration of ≦10%, mixed and incubated overnight on ice to reach binding equilibrium. The following day, 100 mcl of hydroxylapatite slurry (50%) was added to each tube and mixed at 10-minute intervals for 30 minutes. The hydroxylapaptite was collected by centrifugation and then washed three times with Tris-EDTA buffer (50 mM Tris, 1.5 mM EDTA, pH 7.4) containing 0.5% Titron X-100. […] Total binding was determined from the tubes containing only radiolabeled ligand.

Row | Structure (SMILES) | EC50 [1] [nM] | serum calcium levels ([2]; native hormone at the dosage tested, FIG. 4) | EC50 [3] [nM] | HL-60 cell differentiation potency as compared to 1,25(OH)2D3 [1] | EC50 ([1]; Homo sapiens, HL-60, 96 h) [nM] | mobilization of bone calcium (serum calcium) ([2]; 260 pmol/day for 4 consecutive days) | mobilization of bone calcium (serum calcium) ([2]; 2340 pmol/day and then 7020 pmol/day) | transcriptional activity in bone cells as compared to 1α,25-dihydroxyvitamin D3 [3] | intestinal calcium transport activity as compared to 1,25(OH)2D3 [4] | binding to the receptor as compared to 1,25-(OH)2D3 ([5]; full length recombinant rat VDR) | Ki ([5]; full-length recombinant rat VDR) [nM]
1 | C=C1/C(=C\C=C2/CCC[C@]3(C)[C@@H]([C@H](C)CCCC(C)(C)O)CC[C@@H]23)C[C@@H](O)C[C@@H]1O [1α,25-dihydroxyvitamin D3, reference compound] | 1.3 | increased serum calcium levels | 0.29 | – | – | – | – | – | – | – | –
2 | C=C1[C@H](O)CC(=C/C=C2\CCC[C@]3(C)/C(=C(/C)CCCC(C)(C)O)CC[C@@H]23)C[C@H]1O [VIT-III, 17(Z)-1α,25-dihydroxy-17(20)-dehydro-2-methylene-19-norvitamin D3] | – | – | 0.0044 | as potent as 1,25(OH)2D3 | 0.37 | significant mobilization of bone calcium | progressively increasing serum calcium levels well above the effects seen with 1,25(OH)2D3 | about the same transcriptional activity | significant increase in intestinal calcium transport activity; also recorded: relatively high activity | bound equally well | 0.05
